Assay results as given in patent US10669284B2, “Fused thiazolopyrimidine derivatives as MNKS inhibitors” (LIFEARC, priority 2015, dated 2020).

Assays:
[1] = biological target: T1, Full-length human MNK2 (Homo sapiens, UniProt Q9HBH9, T379D); assay: MNK2 biochemical IC50 assay (Caliper Mobility Shift Assay); conditions: read-out: P(IC50) MNK2 (converted)
T1 construct: GST (N); purchased Carna Biosciences 02-146; host or cells: baculovirus expression system
Source text: (§1) The phosphorylated peptide product and unphosphorylated peptide substrate were detected using a Caliper Mobility Shift Assay using the Caliper LabChip EZ Reader II.
(§2) The Caliper Mobility Shift Assay technology is based on the utilisation of a microfluidic chip to measure the conversion of a fluorescent non-phosphorylated peptide substrate to phosphorylated product by electrophoresis separation of substrate and product and detection via Laser-induced fluorescence. The LabChip EZ Reader software calculates the relative heights of substrate and product peaks and reports the peak ratio (Product peak(P) divided by the sum of Product peak(P) and Substrate peak(S)). The percent-conversion is calculated as 100×[(P/(P+S)]. All assays were set up to run in the linear phase with a maximum of 10 percent substrate conversion.
(§3) These were N-terminal GST fusion proteins expressed in baculovirus expression system and purified by glutathione sepharose affinity chromatography. […] All other assay reagents were sourced from Sigma.
(§4) The assay incubation times were adjusted depending on the concentration of ATP used. Assays were performed at low (50 uM) and high (1 mM) ATP. The low ATP values were selected to run at Km conditions for the standard assay to allow relative potencies to be compared across other kinases. The high ATP concentration was selected as representative of cellular ATP concentrations, and for an indication of ATP competition, where a significant shift (greater than half log) in apparent potency would be expected compared to Km conditions. All IC50 values reported are the average of at least two independent experiments.
Reactions were performed as above using 10 nM MNK2 in the assay. Standard assays contained 50 uM ATP and high concentration ATP assays contained 1 mM ATP. […] All other conditions were the same.

[2] = system: phosphorylation of eIF4E at ser209 in MV4.11 cell line; assay: MNK cellular activity phospho-eIF4E detection assay (Alphascreen Surefire); assay type: cell-based; conditions: Homo sapiens; MV4.11 cell line, phospho-eIF4E (ser209) Alphascreen Surefire; read-out: P(IC50) elF4E (converted)
Method: The assay detection is based on the formation of sandwich antibody complexes coupled to donor and acceptor beads. Excitation at 680 nm causes the transfer of a singlet oxygen species between donor and acceptor beads when they are in close proximity by binding to the analyte ([…]), which results in the emission of light at 520-620 nm.
Cells were then lysed and the Alphascreen Surefire protocol followed according to manufacturer's recommendations. 8 ul Acceptor beads (1:50 dilution in kit activation buffer) was added to lysate, shaken 150 rpm for 2 min and incubated for 1.5 hr at room temperature. 3 ul Donor beads (1:20 dilution in kit dilution buffer) were then added, shaken 150 rpm for 2 min and incubated for a further 1.5 hr at room temperature after which the plates were read on Pherastar FS using Alphascreen optic module.
Data were normalised relative to untreated DMSO only controls and curves repeated in duplicate within experiments. Data reported are averages of at least 2 independent experiments.

[3] = biological target: T2, Full-length human MNK1 (Homo sapiens, UniProt Q9BUB5, T385D); assay: MNK1 biochemical IC50 assay (Caliper Mobility Shift Assay); conditions: read-out: P(IC50) MNK1 (converted)
T2 construct: GST (N); purchased Carna Biosciences 02-145; host or cells: baculovirus expression system
Source text: as §1, §2, §3
Compounds were serially diluted in DMSO to generate a 10-point half log dilution curve with a final top concentration of 100 uM in the assay. […] Compounds were pre-incubated with enzyme and peptide in reaction buffer for 30 mins prior to addition of ATP to initiate the reaction. Final assay concentrations were 3 nM MNK1, 2 uM peptide substrate, 50 uM ATP, 50 mM Hepes pH 7.0, 0.01% BSA, 10 mM MgCl2, 1 mM dithiothrietol.
as §4

T2 sequence (Q9BUB5 1-424 isoform Q9BUB5-2 T344D): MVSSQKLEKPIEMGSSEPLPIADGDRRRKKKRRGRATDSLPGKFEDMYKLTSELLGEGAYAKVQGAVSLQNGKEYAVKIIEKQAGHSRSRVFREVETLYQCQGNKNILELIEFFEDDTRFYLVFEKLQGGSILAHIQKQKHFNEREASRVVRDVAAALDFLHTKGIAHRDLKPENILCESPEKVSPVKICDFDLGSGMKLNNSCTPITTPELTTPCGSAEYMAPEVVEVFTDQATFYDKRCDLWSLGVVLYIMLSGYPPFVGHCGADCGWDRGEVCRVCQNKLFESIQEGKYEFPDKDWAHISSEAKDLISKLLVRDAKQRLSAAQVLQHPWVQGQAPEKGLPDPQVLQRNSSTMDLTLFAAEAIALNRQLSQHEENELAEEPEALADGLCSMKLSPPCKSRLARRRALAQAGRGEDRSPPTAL
T1 sequence (Q9HBH9 whole entry T379D): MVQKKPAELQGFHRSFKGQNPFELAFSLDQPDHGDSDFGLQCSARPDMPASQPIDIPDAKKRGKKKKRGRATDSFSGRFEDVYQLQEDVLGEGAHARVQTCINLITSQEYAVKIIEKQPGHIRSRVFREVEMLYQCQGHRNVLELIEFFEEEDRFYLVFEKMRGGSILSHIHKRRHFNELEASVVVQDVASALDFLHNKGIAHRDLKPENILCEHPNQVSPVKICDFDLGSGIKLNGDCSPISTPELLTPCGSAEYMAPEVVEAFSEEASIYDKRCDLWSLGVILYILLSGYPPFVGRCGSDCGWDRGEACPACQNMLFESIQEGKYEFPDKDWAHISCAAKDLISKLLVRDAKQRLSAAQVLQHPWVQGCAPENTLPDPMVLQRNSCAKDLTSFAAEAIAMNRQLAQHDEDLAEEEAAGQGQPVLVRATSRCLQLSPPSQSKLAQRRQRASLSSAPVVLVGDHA

| IC50 [1] [nM] | IC50 [2] [nM] | IC50 [3] [nM] | SMILES |
| --- | --- | --- | --- |
| 20 | 31.6 | 15.8 | CN1CCC(NC(=O)c2nc3c(N4CCc5cc([N+](=O)[O-])ccc54)ncnc3s2)CC1 [Example 45, N-(1-methylpiperidin-4-yl)-7-(5-nitro-2,3-dihydro-1H-indol-1-yl)[1,3]thiazolo[5,4-d]pyrimidine-2-carboxamide] |
| 200 | 100 | 501 | CC(=O)Nc1ccc2c(c1)CCN2c1ncnc2sc(C(=O)NC3CCN(C)CC3)nc12 [Example 46, 7-[5-(Acetylamino)-2,3-dihydro-1H-indol-1-yl]-N-(1-methylpiperidin-4-yl)[1,3]thiazolo[5,4-d]pyrimidine-2-carboxamide] |
| 251 | 251 | 251 | CN1CCN(c2ncnc3sc(C(=O)NCC4CCNCC4)nc23)c2ccc(F)cc21 [Example 57, 7-(6-fluoro-4-methyl-2,3-dihydroquinoxalin-1-yl)-N-(4-piperidylmethyl)thiazolo[5,4-d]pyrimidine-2-carboxamide] |
| 63.1 | 39.8 | 79.4 | COc1ccc2c(c1)CCN2c1ncnc2sc(C(=O)NCC3CCNCC3)nc12 [Example 63, 7-(5-methoxyindolin-1-yl)-N-(4-piperidylmethyl)thiazolo[5,4-d]pyrimidine-2-carboxamide] |
| 79.4 | 251 | 79.4 | CN1CCN(C(=O)c2nc3c(N4CCc5cc(F)ccc54)ncnc3s2)CC1 [Example 65, [7-(5-fluoroindolin-1-yl)thiazolo[5,4-d]pyrimidin-2-yl]-(4-methylpiperazin-1-yl)methanone] |
| 3.98 | 10 | 5.01 | O=C(NC1CCOCC1)c1nc2c(N3CCc4cc(F)ccc43)ncnc2s1 [Example 66, 7-(5-fluoroindolin-1-yl)-N-tetrahydropyran-4-yl-thiazolo[5,4-d]pyrimidine-2-carboxamide] |
| 3.16 | 3.98 | 3.98 | CN1CCC(NC(=O)c2nc3c(N4CCc5cc(F)ccc54)ncnc3s2)CC1 [Example 67, 7-(5-fluoroindolin-1-yl)-N-(1-methyl-4-piperidyl)thiazolo[5,4-d]pyrimidine-2-carboxamide] |
| 5.01 | 6.31 | 6.31 | CNC(=O)c1nc2c(N3CCc4cc(F)ccc43)ncnc2s1 [Example 69, 7-(5-fluoroindolin-1-yl)-N-methyl-thiazolo[5,4-d]pyrimidine-2-carboxamide] |
| 20 | 63.1 | 50.1 | CN(C)C(=O)c1nc2c(N3CCc4cc(F)ccc43)ncnc2s1 [Example 70, 7-(5-fluoroindolin-1-yl)-N,N-dimethyl-thiazolo[5,4-d]pyrimidine-2-carboxamide] |
| 6.31 | 15.8 | 10 | CNCCNC(=O)c1nc2c(N3CCc4cc(F)ccc43)ncnc2s1 [Example 71, 7-(5-fluoroindolin-1-yl)-N-[2-(methylamino)ethyl]thiazolo[5,4-d]pyrimidine-2-carboxamide] |
| 5.01 | 5.01 | 5.01 | CNCCCNC(=O)c1nc2c(N3CCc4cc(F)ccc43)ncnc2s1 [Example 72, 7-(5-fluoroindolin-1-yl)-N-[3-(methylamino)propyl]thiazolo[5,4-d]pyrimidine-2-carboxamide] |
| 5.01 | 15.8 | 5.01 | CN(C)CCNC(=O)c1nc2c(N3CCc4cc(F)ccc43)ncnc2s1 [Example 73, N-[2-(dimethylamino)ethyl]-7-(5-fluoroindolin-1-yl)thiazolo[5,4-d]pyrimidine-2-carboxamide] |

More lines, now with the values behind:

| SMILES | IC50 [1] [nM] | IC50 [2] [nM] | IC50 [3] [nM] |
| --- | --- | --- | --- |
| CC(C)Oc1cc(F)ccc1Nc1ncnc2scnc12 [Example 47, N-[4-fluoro-2-(propan-2-yloxy)phenyl][1,3]thiazolo[5,4-d]pyrimidin-7-amine] | 200 | 126 | 251 |
| CC(C)Oc1cc(F)ccc1Nc1ncnc2sc(CO)nc12 [Example 48, [7-(4-Fluoro-2-isopropoxy-anilino)thiazolo[5,4-d]pyrimidin-2-yl]methanol] | 39.8 | 20 | 63.1 |
| O=C(Nc1ccc(Nc2ncnc3sc(C(=O)NCC4CCNCC4)nc23)cc1)Nc1cccc(C(F)(F)F)c1 [Example 49, N-(4-piperidylmethyl)-7-[4-[[3-(trifluoromethyl)phenyl]carbamoylamino]anilino]thiazolo[5,4-d]pyrimidine-2-carboxamide] | 63.1 | 79.4 | 158 |
| O=C(NCC1CCNCC1)c1nc2c(Nc3ccc4[nH]ncc4c3)ncnc2s1 [Example 50, 7-(1H-indazol-5-ylamino)-N-(4-piperidylmethyl)thiazolo[5,4-d]pyrimidine-2-carboxamide] | 31.6 | 794 | 20 |
| O=C(NCC1CCNCC1)c1nc2c(Nc3ccc(F)cc3OC3CCCC3)ncnc2s1 [Example 51, 7-[2-(cyclopentoxy)-4-fluoro-anilino]-N-(4-piperidylmethyl)thiazolo[5,4-d]pyrimidine-2-carboxamide] | 100 | 126 | 126 |
| O=C(NCC1CCNCC1)c1nc2c(Nc3ccc(F)cc3OC(CF)CF)ncnc2s1 [Example 52, 7-[4-fluoro-2-[2-fluoro-1-(fluoromethyl)ethoxy]anilino]-N-(4-piperidylmethyl)thiazolo[5,4-d]pyrimidine-2-carboxamide] | 63.1 | 100 | 63.1 |
| CCOc1cc(F)ccc1Nc1ncnc2sc(C(=O)NCC3CCNCC3)nc12 [Example 53, 7-(2-ethoxy-4-fluoro-anilino)-4-(4-piperidylmethyl)thiazolo[5,4-d]pyrimidine-2-carboxamide] | 126 | 126 | 100 |
| O=C(NCC1CCNCC1)c1nc2c(Nc3ccc(F)cc3O[C@H]3CCOC3)ncnc2s1 [Example 54, 7-[4-fluoro-2-[(3S)-tetrahydrofuran-3-yl]oxy-anilino]-N-(4-piperidylmethyl)thiazolo[5,4-d]pyrimidine-2-carboxamide] | 100 | 200 | 79.4 |
| CC(C)Oc1ncccc1Nc1ncnc2sc(C(=O)NCC3CCNCC3)nc12 [Example 55, 7-[(2-Isopropoxy-3-pyridyl)amino]-N-(4-piperidylmethyl)thiazolo[5,4-d]pyrimidine-2-carboxamide] | 251 | 316 | 316 |
| O=C(NCC1CCNCC1)c1nc2c(N3CCOc4cc(F)ccc43)ncnc2s1 [Example 56, 7-(7-fluoro-2,3-dihydro-1,4-benzoxazin-4-yl)-N-(4-piperidylmethyl)thiazolo[5,4-d]pyrimidine-2-carboxamide] | 794 | 794 | 1000 |
| CO[C@H]1CCC[C@@H](Oc2cc(F)ccc2Nc2ncnc3sc(C(=O)NCC4CCNCC4)nc23)C1 [Example 60, 7-[4-fluoro-2-[(1R,3S)-3-methoxycyclohexoxy]anilino]-N-(4-piperidylmethyl)thiazolo[5,4-d]pyrimidine-2-carboxamide] | 1000 | 631 | 794 |
| CO[C@@H]1CCC[C@H](Oc2cc(F)ccc2Nc2ncnc3sc(C(=O)NCC4CCNCC4)nc23)C1 [Example 61, 7-[4-fluoro-2-[(1S,3R)-3-methoxycyclohexoxy]anilino]-N-(4-piperidylmethyl)thiazolo[5,4-d]pyrimidine-2-carboxamide] | 126 | 79.4 | 100 |
| O=C(NCC1CCNCC1)c1nc2c(Nc3ccccc3-c3ccco3)ncnc2s1 [Example 62, 7-[2-(2-furyl)anilino]-N-(4-piperidylmethyl)thiazolo[5,4-d]pyrimidine-2-carboxamide] | 316 | 316 | 631 |
